In paper PMC9414551 (Pharmaceuticals, 2022):
Several values for one entry are separate records, joined by “and”; a condition that tells them apart may be missing. Equal entries are not always repeated. Structures can show the parent of a compound that is named as a salt.

Tests used:
NR1-2D NMDAR [1] = biological target: T1, NR1-2D NMDAR (Homo sapiens, UniProt O15399+Q05586); assay: cell-based; format: cell-based; parameters: host or cells: CHO (CHO-hN1-h2D), tetracycline-induced expression; details: read-out: L-glutamate Max. (maximal asymptote) in the presence of test item, GluN1/GluN2D
NR1-2B NMDAR [2] = biological target: T2, NR1-2B NMDAR (Homo sapiens, UniProt Q05586+Q13224); assay: FLIPR Ca2+ assay, blocker concentration-response curve; format: cell-based; parameters: host or cells: CHO (CHO-hNR1-h2B), constitutive expression
Description: (§1) CHO cell lines stably over-expressing heterodimeric NMDARs composed of human NR1 and 2 subunits were generated by Aptuit, an Evotec company (Verona, Italy). Cell line details are available at ExPASy Cellosaurus database. Research Resource Identifiers (RRIDs) are CVCL_B3TY, CVCL_B3TZ, CVCL_B3U0, and CVCL_B3U1 for CHO-hNR1-h2A, CHO-hNR1-h2B, CHO-hN1-h2C, and CHO-hN1-h2D, respectively. Protein accession numbers were NP_015566, NP_000824, NP_000825, NP_000826, and NP_000827 for NR1, 2A, 2B, 2C, and 2D, respectively. […] The four different heterodimeric NMDARs studied were NR1-2A, NR1-2B, NR1-2C, and NR1-2D. Cell lines were cultured for a maximum of 75 passages.
(§2) FLIPR assay allowed for indirect measurement of intracellular Ca^2+ concentration by means of a Ca^2+-sensitive fluorescent dye (Fluo-4) using the FLIPR instrument (Molecular Devices, San Jose, CA, USA). For these assays, 40 mM stock solutions of the test items were prepared in 100% dimethyl sulfoxide (DMSO), while glutamate and glycine 4 mM stock solutions were prepared in water. 384-well compound plates containing 400 × concentrated test item, glutamate, and glycine were prepared using Labcyte Echo acoustic dispensing system and stored at −20 °C until the day of the experiment.
(§3) Glycine 10 μM was always included in every test item addition.
(§4) Glycine was kept at a constant concentration of 10 μM during experiments.

NR1-2C NMDAR [3] = biological target: T3, NR1-2C NMDAR (Homo sapiens, UniProt Q05586+Q14957); assay: cell-based; format: cell-based; parameters: host or cells: CHO (CHO-hN1-h2C), tetracycline-induced expression; details: read-out: L-glutamate Max. (maximal asymptote) in the presence of test item, GluN1/GluN2C
NR1-2C NMDAR [4] = biological target: T3, NR1-2C NMDAR; assay: Whole-cell manual patch-clamp: current block, onset/offset kinetics and trapping, no Mg2+; details: test item 10 µM, −70 mV
NR1-2A NMDAR [5] = biological target: T4, NR1-2A NMDAR (Homo sapiens, UniProt Q05586+Q12879); assay: cell-based; format: cell-based; parameters: host or cells: CHO (CHO-hNR1-h2A), tetracycline-induced expression; details: read-out: L-glutamate Max. (maximal asymptote) in the presence of test item, GluN1/GluN2A
NR1-2C NMDAR [6] = biological target: T3, NR1-2C NMDAR; assay: FLIPR Ca2+ assay, blocker concentration-response curve; format: cell-based; parameters: host or cells: CHO (CHO-hN1-h2C), tetracycline-induced expression
Description: as §1, §2, §3, §4

NR1-2D NMDAR [7] = biological target: T1, NR1-2D NMDAR; assay: as above; format: cell-based; parameters: host or cells: CHO (CHO-hN1-h2D), tetracycline-induced expression
Description: as §1, §2, §3, §4

NR1-2B NMDAR [8] = biological target: T2, NR1-2B NMDAR; assay: Whole-cell manual patch-clamp REL-1017 CRC in 1 mM MgCl2; details: 1 mM MgCl2, 1 μM L-glutamate, −60 mV
NR1-2A NMDAR [9] = biological target: T4, NR1-2A NMDAR; assay: FLIPR Ca2+ assay, blocker concentration-response curve; format: cell-based; parameters: host or cells: CHO (CHO-hNR1-h2A), tetracycline-induced expression; details: logistic fit of blocker CRC
Description: as §1, §2, §3, §4

NR1-2B NMDAR [10] = biological target: T2, NR1-2B NMDAR; assay: cell-based; format: cell-based; parameters: host or cells: CHO (CHO-hNR1-h2B), constitutive expression; details: read-out: L-glutamate Max. (maximal asymptote) in the presence of test item, GluN1/GluN2B
[11] = 100 μM blocker, 10 µM L-glutamate, no Mg2+

T2 sequence (Q13224 27-1484, other chains not shown): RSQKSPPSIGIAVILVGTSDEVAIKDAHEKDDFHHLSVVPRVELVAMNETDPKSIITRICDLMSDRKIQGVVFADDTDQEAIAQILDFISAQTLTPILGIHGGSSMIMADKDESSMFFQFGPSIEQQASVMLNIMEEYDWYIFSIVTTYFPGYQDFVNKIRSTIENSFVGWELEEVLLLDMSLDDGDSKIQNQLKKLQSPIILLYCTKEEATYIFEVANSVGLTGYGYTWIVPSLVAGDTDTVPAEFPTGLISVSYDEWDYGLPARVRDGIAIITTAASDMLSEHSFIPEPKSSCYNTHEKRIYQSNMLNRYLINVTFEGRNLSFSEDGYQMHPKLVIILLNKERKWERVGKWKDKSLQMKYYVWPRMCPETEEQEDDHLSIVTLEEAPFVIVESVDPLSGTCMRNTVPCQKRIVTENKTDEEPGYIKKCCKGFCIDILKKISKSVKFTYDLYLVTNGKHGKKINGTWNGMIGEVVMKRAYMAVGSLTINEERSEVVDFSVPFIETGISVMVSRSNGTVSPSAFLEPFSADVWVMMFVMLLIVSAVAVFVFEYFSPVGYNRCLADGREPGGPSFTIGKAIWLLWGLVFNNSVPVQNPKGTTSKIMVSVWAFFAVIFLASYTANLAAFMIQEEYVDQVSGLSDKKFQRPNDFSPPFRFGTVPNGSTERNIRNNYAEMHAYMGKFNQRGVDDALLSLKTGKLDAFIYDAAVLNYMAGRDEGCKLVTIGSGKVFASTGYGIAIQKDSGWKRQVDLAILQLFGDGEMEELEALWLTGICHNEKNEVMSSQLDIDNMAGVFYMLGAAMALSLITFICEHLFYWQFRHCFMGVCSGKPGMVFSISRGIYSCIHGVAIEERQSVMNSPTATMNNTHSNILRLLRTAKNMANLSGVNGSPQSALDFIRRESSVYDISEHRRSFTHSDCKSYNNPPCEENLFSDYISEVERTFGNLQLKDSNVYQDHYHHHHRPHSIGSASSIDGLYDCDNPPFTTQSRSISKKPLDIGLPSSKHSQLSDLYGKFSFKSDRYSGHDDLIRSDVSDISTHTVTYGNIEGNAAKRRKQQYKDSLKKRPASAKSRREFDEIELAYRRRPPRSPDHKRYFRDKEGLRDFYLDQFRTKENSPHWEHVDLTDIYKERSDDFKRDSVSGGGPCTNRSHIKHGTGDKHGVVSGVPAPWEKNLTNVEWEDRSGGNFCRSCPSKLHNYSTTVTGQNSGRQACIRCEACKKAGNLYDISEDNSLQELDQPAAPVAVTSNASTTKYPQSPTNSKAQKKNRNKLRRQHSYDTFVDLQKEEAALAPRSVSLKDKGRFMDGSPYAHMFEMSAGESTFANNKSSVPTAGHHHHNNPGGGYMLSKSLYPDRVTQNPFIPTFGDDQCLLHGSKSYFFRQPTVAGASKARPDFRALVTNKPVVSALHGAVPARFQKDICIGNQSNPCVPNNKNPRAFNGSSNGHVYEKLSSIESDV
T1 sequence (O15399 28-1336, other chains not shown): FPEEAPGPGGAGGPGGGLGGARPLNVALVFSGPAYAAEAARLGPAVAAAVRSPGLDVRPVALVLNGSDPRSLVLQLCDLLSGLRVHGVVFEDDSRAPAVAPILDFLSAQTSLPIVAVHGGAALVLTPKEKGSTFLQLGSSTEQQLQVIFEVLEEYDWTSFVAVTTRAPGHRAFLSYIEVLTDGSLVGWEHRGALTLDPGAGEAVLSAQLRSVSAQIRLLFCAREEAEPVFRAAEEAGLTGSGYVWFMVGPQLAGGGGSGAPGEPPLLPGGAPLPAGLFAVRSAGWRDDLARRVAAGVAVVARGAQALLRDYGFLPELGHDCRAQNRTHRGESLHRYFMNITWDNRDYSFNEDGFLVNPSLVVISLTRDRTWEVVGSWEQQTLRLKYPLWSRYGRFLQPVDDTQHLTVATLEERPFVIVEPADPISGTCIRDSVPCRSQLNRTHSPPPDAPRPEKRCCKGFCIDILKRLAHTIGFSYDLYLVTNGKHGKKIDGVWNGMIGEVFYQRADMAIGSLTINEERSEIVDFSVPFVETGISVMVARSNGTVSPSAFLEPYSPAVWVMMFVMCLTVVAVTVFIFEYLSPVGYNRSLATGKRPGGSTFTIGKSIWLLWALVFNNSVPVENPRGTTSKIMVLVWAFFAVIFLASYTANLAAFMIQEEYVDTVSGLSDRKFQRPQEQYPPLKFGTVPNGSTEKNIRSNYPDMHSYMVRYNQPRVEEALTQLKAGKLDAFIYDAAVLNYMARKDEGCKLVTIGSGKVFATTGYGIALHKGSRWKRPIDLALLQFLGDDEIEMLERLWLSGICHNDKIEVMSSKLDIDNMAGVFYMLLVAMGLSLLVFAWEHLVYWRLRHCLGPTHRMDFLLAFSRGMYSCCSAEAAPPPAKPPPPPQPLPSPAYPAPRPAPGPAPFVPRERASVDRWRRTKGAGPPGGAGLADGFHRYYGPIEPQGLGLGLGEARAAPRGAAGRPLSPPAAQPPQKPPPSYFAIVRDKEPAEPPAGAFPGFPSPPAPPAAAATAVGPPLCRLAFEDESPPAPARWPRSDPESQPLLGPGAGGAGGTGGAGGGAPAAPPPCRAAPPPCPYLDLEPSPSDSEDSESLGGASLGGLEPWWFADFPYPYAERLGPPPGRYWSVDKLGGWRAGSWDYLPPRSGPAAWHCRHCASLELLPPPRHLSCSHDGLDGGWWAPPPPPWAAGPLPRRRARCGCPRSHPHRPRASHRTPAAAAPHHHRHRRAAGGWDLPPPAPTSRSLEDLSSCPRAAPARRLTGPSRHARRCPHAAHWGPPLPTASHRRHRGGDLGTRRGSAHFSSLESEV
T3 sequence (Q14957 20-1233, other chains not shown): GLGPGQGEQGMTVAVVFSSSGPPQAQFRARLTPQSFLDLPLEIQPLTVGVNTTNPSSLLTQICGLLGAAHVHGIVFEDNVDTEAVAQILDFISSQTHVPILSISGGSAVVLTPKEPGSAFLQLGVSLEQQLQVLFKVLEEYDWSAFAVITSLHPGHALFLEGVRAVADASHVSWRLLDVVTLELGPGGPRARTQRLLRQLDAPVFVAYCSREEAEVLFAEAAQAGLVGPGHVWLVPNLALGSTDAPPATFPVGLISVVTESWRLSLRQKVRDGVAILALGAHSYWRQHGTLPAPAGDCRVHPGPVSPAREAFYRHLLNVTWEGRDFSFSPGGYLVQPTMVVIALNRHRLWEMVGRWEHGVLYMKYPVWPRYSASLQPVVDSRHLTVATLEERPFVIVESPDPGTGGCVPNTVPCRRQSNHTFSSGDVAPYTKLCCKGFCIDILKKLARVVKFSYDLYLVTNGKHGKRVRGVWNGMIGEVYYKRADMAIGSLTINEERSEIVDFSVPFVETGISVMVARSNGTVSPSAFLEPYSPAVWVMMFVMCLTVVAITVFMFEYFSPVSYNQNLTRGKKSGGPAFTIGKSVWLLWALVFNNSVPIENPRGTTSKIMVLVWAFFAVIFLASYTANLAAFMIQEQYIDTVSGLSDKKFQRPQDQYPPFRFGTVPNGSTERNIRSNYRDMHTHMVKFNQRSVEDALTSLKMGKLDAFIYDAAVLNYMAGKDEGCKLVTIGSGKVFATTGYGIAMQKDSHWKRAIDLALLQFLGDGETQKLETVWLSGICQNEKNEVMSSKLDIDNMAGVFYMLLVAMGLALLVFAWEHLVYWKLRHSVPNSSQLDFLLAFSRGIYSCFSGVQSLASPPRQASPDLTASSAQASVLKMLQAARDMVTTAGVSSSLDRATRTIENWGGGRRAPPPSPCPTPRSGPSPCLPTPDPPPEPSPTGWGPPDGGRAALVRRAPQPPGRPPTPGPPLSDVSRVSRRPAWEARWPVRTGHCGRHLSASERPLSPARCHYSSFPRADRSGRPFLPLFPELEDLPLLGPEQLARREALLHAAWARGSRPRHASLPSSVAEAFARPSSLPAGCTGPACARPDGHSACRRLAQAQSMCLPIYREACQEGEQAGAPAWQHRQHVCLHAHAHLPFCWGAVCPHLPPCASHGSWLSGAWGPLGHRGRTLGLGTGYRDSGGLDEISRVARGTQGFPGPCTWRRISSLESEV

SMILES: CCC(=O)C(C[C@H](C)N(C)C)(c1ccccc1)c1ccccc1 [REL-1017, dextromethadone HCl]
- remaining activity at 0.049 µM (NR1-2D NMDAR [1]; test item 0.049 μM): 101%
- remaining activity at 0.195 µM (NR1-2D NMDAR [1]; test item 0.195 μM): 97%
- remaining activity at 0.781 µM (NR1-2D NMDAR [1]; test item 0.781 μM): 101%
- remaining activity at 3.1 µM (NR1-2D NMDAR [1]; test item 3.1 μM): 97%
- remaining activity at 12.5 µM (NR1-2D NMDAR [1]; test item 12.5 μM): 82%
- remaining activity at 50 µM (NR1-2D NMDAR [1]; test item 50 μM): 41%
- Min. (%), minimal % Ca2+ influx in the presence of 100 μM blocker (NR1-2B NMDAR [2]; [11]): 14%
- Slope (NR1-2B NMDAR [2]; logistic fit of blocker CRC): −1.1
- remaining activity at 0.049 µM (NR1-2C NMDAR [3]; test item 0.049 μM): 99%
- remaining activity at 0.195 µM (NR1-2C NMDAR [3]; test item 0.195 μM): 100%
- remaining activity at 0.781 µM (NR1-2C NMDAR [3]; test item 0.781 μM): 95%
- remaining activity at 3.1 µM (NR1-2C NMDAR [3]; test item 3.1 μM): 94%
- remaining activity at 12.5 µM (NR1-2C NMDAR [3]; test item 12.5 μM): 75%
- remaining activity at 50 µM (NR1-2C NMDAR [3]; test item 50 μM): 30%
- I1 (% Current) at end of test item addition, normalized to I0 (NR1-2C NMDAR [4]; 30 s co-application): 20.4%
- I2 (% Current) at end of test item removal, normalized to I0 (NR1-2C NMDAR [4]; 50 s after removal): 98.5%
- BR (residual block) (NR1-2C NMDAR [4]; after wash with glycine alone): 71.8 ± 1.1
- B (initial block) (NR1-2C NMDAR [4]): 84 ± 1% and 83.8 ± 1.2 %
- BT (trapped block, BR/B × 100) (NR1-2C NMDAR [4]): 85.9 ± 1.9%
- Tau off (NR1-2C NMDAR [4]): 17.7 ± 1.0 s
- Tau on (NR1-2C NMDAR [4]): 4.7 ± 0.21 s
- remaining activity at 0.049 µM (NR1-2A NMDAR [5]; test item 0.049 μM): 103%
- remaining activity at 0.195 µM (NR1-2A NMDAR [5]; test item 0.195 μM): 98%
- remaining activity at 0.781 µM (NR1-2A NMDAR [5]; test item 0.781 μM): 103%
- remaining activity at 3.1 µM (NR1-2A NMDAR [5]; test item 3.1 μM): 98%
- remaining activity at 12.5 µM (NR1-2A NMDAR [5]; test item 12.5 μM): 84%
- remaining activity at 50 µM (NR1-2A NMDAR [5]; test item 50 μM): 35%
- Min. (%), minimal % Ca2+ influx in the presence of 100 μM blocker (NR1-2C NMDAR [6]; [11]): 15%
- Slope (NR1-2C NMDAR [6]; logistic fit of blocker CRC): −0.84
- Min. (%), minimal % Ca2+ influx in the presence of 100 μM blocker (NR1-2D NMDAR [7]; [11]): 47%
- Slope (NR1-2D NMDAR [7]; logistic fit of blocker CRC): −0.68
- Hill Slope (NR1-2B NMDAR [8]): 1.17
- Slope (NR1-2A NMDAR [9]): −1.0
- remaining activity at 0.049 µM (NR1-2B NMDAR [10]; test item 0.049 μM): 96%
- remaining activity at 0.195 µM (NR1-2B NMDAR [10]; test item 0.195 μM): 96%
- remaining activity at 0.781 µM (NR1-2B NMDAR [10]; test item 0.781 μM): 93%
- remaining activity at 3.1 µM (NR1-2B NMDAR [10]; test item 3.1 μM): 89%
- remaining activity at 12.5 µM (NR1-2B NMDAR [10]; test item 12.5 μM): 72%
- remaining activity at 50 µM (NR1-2B NMDAR [10]; test item 50 μM): 35%
